A short description of experiment [1]: Evaluation of gallstone dissolution, cholesterol stone. More on the design: species or system human. Particulars: 37° C., 4 hours; for Dissolution ability (%) Cholesterol stone: 0.5 g gallstone + 0.5 ml agent (1 g compound in 1 ml DMSO), (weight after dissolution)/(weight before dissolution)×100. As for the experimental part:
(§1) In order to evaluate the cholesterol stone and pigmented stone dissolution abilities of each of Examples 1 to 3 and Comparative Examples 1 and 2 prepared according to the Preparation Example above, cholesterol stones and pigmented stones removed during surgery of gallstone patients were obtained, thereby preparing gallstones. 0.5 g of each of the prepared gallstones was placed in an Eppendorf tube, and then 0.5 ml of each of the gallstone-dissolving agents of Examples 1 to 3 and Comparative Examples 1 and 2 was added to the Eppendorf tube containing the gallstone. Each tube was left to stand at 37° C. for 4 hours. Thereafter, the gallstone dissolution ability of each compound was evaluated by measuring the mass of the gallstones before and after dissolving the gallstone by treatment with each compound. The results of evaluating the abilities to dissolve cholesterol stones and pigmented stones are shown in Tables 2 and 3 below, respectively, and photographs before and after dissolving the gallstones are comparatively shown in FIGS. 1 and 2, respectively.
(§2) The gallstone dissolution ability was calculated using the following equation: Gallstone dissolution ability (%)=(weight of gallstone after dissolution)/(weight of gallstone before dissolution)×100

Experiment [2] is described as follows: Evaluation of gallstone dissolution, pigmented stone. More on the design: species or system human. As to conditions: 0.5 g gallstone + 0.5 ml agent (1 g compound in 1 ml DMSO), 37° C., 4 hours; (weight after dissolution)/(weight before dissolution)×100. As for the experimental part: as §1, §2

With `COC(C)(C)C` [Comparative Example 1, Methyl tert-butyl ether, reference compound], the “Dissolution ability (%) Cholesterol stone” value in experiment [1] is reported as 24.07%.
Consider `CCOC(=O)CC` [Comparative Example 2, ethyl propionate, reference compound], for which the “Dissolution ability (%) Cholesterol stone” value in experiment [1] is given as 48.66%.
Regarding `COc1cccc(C)n1` [Example 1, 2-methoxy-6-methylpyridine], the “Dissolution ability (%) Cholesterol stone” value in experiment [1] was found to be 14.16%. Also, the “Dissolution ability (%) Pigmented stone” value in experiment [2] is on record as 52.92%.
As to `COC(=O)c1cccc(C)c1` [Example 2, methyl 3-methylbenzoate], the “Dissolution ability (%) Cholesterol stone” value in experiment [1] is listed as 10.00%. The “ability to dissolve the cholesterol stone (in words)” value in experiment [1] (Table 2 and FIG. 1) is “excellent ability to dissolve the cholesterol stone”. In experiment [2], the “Dissolution ability (%) Pigmented stone” value is reported as 58.33%.
For the compound `CC(=O)C1CC1` [Example 3, 1-cyclopropylethanone], the “Dissolution ability (%) Cholesterol stone” value in experiment [1] is listed as 28.57%. Also, in experiment [2], the “Dissolution ability (%) Pigmented stone” value amounted to 60.00%.

For the origin of these results see patent US11400056B2, “Pharmaceutical composition comprising gallstone solubilizer for treatment of gallbladder disease” (SurgiNex Co., Ltd., priority 2016, dated 2022).
